This is an account of results in patent publication US5849724A, “Microorganism of genus chrysosporium for use in preparing farnesyl transferase inhibitors” (Rhone-Poulenc Rorer S.A., priority 1995, dated 1998).

In this assay the target is T1, farnesyl transferase (Homo sapiens, UniProt P49354+P49356).
T1 construct: This enzyme has been partially purified from human THP1 cells; endogenous in cells; host or cells: human THP1 cells (enzyme partially purified from them)
Briefly: test for inhibition of farnesyl transferase by scintillation proximity assay (SPA). It counts as biochemical. The following applies: partially purified Ftase from human THP1 cells, 60 minutes at 37° C., BLB and 3H FPP substrates. The method, then:
The principle of the SPA (Scintillation Proximity Assay) technology is applied to the assay of the enzymatic activity of farnesyl transferase. According to this method, the farnesyl transferase inhibiting activity is determined by the quantity of [^3 H] farnesyl transferred from [^3 H] farnesyl pyrophosphate, ^3 H FPP, to a biotinylated acceptor substrate.
Method used to detect the active metabolites: test for inhibition of farnesyl transferase by scintillation proximity assay (SPA)
The donor substrate, farnesyl pyrophosphate, is labelled with tritium ^3 H FPP. […] The radiolabelled peptide excites the beads which then emit light which is quantified in a solid-liquid scintillation counter (Topcount®, Packard).
The plate is incubated for 60 minutes at 37° C. and the reaction is stopped by adding 150 μl of stopping reagent containing the SPA beads. The plate is sealed with an adhesive film and left for 30 minutes at room temperature in order to reach equilibrium, and then counted in the Topcount counter. […] The IC50 values of the compounds are calculated by nonlinear regression.
(In a scintillation proximity assay essentially only radioactivity close to the scintillant gives light.)

By IC50 is commonly meant the point on the concentration scale where inhibition reaches its midpoint. Read a low IC50 as greater potency.

As to `CC(C)C1CCC2C1(C)CCC1(C)C3=CCC4C(C)(C(=O)O)C(O)C(O)C(O)C4(COP(=O)(O)O)C3CCC21C` (stereo not shown) [Example 1], 830 nM corresponded to half-maximal inhibition (IC50).
